“Also recorded” adds a separate entry of the source. Blank lines part the entries; values can stand above or below the compound they belong to.
Tests used:
[1] = target: GFP-fused multimerized CBP bromodomain (Homo sapiens, UniProt Q92793); test: FRAP assay in U2OS cells, GFP-fused CBP bromodomain; type: cell-based; details: compound 1 μM, 2.5 μM SAHA
bromodomain of CBP = bromodomain of CBP (Homo sapiens, UniProt Q92793); test: Alpha Screen assay; type: binding
LP1 cells = test: Cell proliferation, resazurin assay; type: cell-based, human; details: 72 h or 144 h
Kasumi cells = test: Cell proliferation, resazurin assay; type: cell-based, human; details: 72 h or 144 h
[2] = system: MRC5 nontransformed fibroblast; test: Cell proliferation, resazurin assay; type: cell-based; details: Homo sapiens, MRC5, 72 h, read-out: GI50 MRC5
HL-60 cells = test: Cell proliferation, resazurin assay; type: cell-based; details: 144 h
IRF4 mRNA = test: RT-qPCR mRNA transcription in LP1 cells; type: cell-based, human; details: 6 h incubation, dose-response
c-MYC mRNA = test: RT-qPCR mRNA transcription in LP1 cells; type: cell-based, human; details: 6 h incubation, dose-response

displacement of GFP-fused CBP bromodomain from chromatin (FRAP) [1]: significant displacement
SMILES: CCOc1ccc(C(C)=O)cc1NC(=O)c1ccc(C)c(NC(=O)c2ccco2)c1 [Compound 7]

displacement of GFP-fused CBP bromodomain from chromatin (FRAP) [1]: significant displacement
SMILES: CCOc1ccc(C(C)=O)cc1-c1ccc(N2CCCS2(=O)=O)cc1C [Compound 13]

Further lines, the compound ahead of its results:

SMILES: CCOc1ccc(C(C)=O)cc1NC(=O)Cc1csc(-c2ccc(OC)c(OC)c2)n1 [Compound 6]
displacement of GFP-fused CBP bromodomain from chromatin (FRAP) [1]: significant displacement

SMILES: CCOc1ccc(C(C)=O)cc1NC(=O)c1cc(NC(C)=O)cc(NC(=O)c2ccco2)c1 [Compound 16]
affinity for CBP bromodomain higher by a factor with respect to BRD4(1) (bromodomain of CBP): more than 10,000
displacement of GFP-fused CBP bromodomain from chromatin (FRAP) [1]: significant displacement; also recorded: strongest effect
proliferation of LP1 cells (LP1 cells): selectively inhibited the proliferation
proliferation of Kasumi cells (Kasumi cells): selectively inhibited the proliferation
GI50 [2]: > 20 µM
proliferation of HL-60 cells (HL-60 cells): selectively inhibited the proliferation
IRF4 mRNA level (IRF4 mRNA): reduced
c-MYC mRNA level (c-MYC mRNA): reduced

SMILES: CCOc1ccc(C(C)=O)cc1NC(=O)c1cc(NC(C)=O)cc(NC(=O)c2ccc(OC)c(OC)c2)c1 [Compound 17]
displacement of GFP-fused CBP bromodomain from chromatin (FRAP) [1]: significant displacement

Source: paper PMC5833004 (ACS Central Science, 2018)
